Assay results reported in patent publication US10316039B2, “P2X3 and/or P2X2/3 compounds and methods” (Asana Biosciences, LLC, priority 2013, dated 2019).

Experiments:
P2X3 = target: T1, P2X3 (UniProt P56373); experiment: P2X3 FLIPR intracellular calcium assay; format: cell-based; details: agonist at EC75, species (human or rat) not given
T1 sequence (P56373 1-397): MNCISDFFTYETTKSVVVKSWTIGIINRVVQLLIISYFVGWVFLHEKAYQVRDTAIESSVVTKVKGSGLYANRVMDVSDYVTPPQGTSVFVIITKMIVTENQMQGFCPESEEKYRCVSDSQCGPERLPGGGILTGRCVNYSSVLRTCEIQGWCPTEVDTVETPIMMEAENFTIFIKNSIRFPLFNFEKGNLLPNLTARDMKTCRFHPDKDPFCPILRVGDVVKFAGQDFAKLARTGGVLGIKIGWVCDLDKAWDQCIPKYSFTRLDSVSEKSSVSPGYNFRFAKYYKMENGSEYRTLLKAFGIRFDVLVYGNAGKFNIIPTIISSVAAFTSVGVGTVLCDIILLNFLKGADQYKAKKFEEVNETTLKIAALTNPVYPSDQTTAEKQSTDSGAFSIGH
Excerpt: The FLIPR® assay utilizes cells which express human or rat P2X3 or P2X2/3 receptors. […] The PCR product obtained containing the protein coding sequence of rat P2X2 was cloned into EcoRV-digested and dephosphorylated vector pIRES-puro3 within the multiple cloning site (MCS). See, FIG. 1A.
Rat P2X3 (NCBI Accession No: X91167) was amplified by PCR from rat brain cDNA. The PCR product obtained containing the protein coding sequence of rat P2X3 was cloned into EcoRV-digested and dephosphorylated vector pCDNA-Hygro within the multiple cloning site (MCS) (FIG. 1B). Rat P2X3 cloned into pcDNA-Hygro was then subcloned into pcDNA-5/TO at HindIII (5′) and XhoI (3′) sites within the multiple cloning site (MCS) of the vector (FIG. 1C).
(§1) Transfection was carried out using super-coiled constructs (purified using QIAGEN kit) in antibiotic free, serum free DMEM using Lipofectamine® 2000 (Invitrogen) transfection agent. The DNA constructs rat P2X2 in pIRES-Puro3 and rat P2X3 in pCDNA5/TO were co-transfected into TRex293 cells in order to generate the rP2X2/3 stable line. 50 μg/mL hygromycin (Invitrogen) and 0.5 μg/mL puromycin (Fermentek) were used for selection of stable clones of rP2X2/3. Rat P2X3 in pCDNA5/TO DNA construct was transfected to CHO-TRex cells to generate the rP2×3 stable line and 500 μg/mL hygromycin (Invitrogen) was used as selection antibiotic. Transfected stable colonies were then functionally verified and robust clones suitable for assay were clonally purified through dilutions.
(§2) Cryo-vial containing 6×10^6 cells (human P2X3-HEK/human P2X2/3-TRex293/rat P2X2/3-TRex293/rat P2X3 TRex-CHO) was thawed in a 37° C. water bath. Cells were suspended in 20 mL of respective cell plating media (See annexure for composition) in a 50 mL centrifuge tube. The cell viability was checked with the help of Trypan Blue dye. Upon washing, cells were plated in a black 384-well clear bottomed, sterile poly-D-lysine coated plate such that, each well contained 10,000 cells (15,000/well for hP2X3) in 30 μL cell plating media. The plate was incubated in a 5% CO2 incubator at 37° C. for 24 h.
(§3) The next day, prior to the assay, the cell plating media was removed from each well by decanting and gentle tapping. Thirty μL of FLIPR Calcium 4 dye solution was added to each well. The plate was incubated at 37° C. for 45 min (60 min for hP2X3). The plate was next equilibrated at room temperature for 15 minutes before placing it in a 384 well FLIPR for the assay.
Dilutions were mixed with assay buffer just before performing the assay.
(§4) Compounds were added to the respective wells of the assay-ready cell plate with the help of the FLIPR and fluorescence readings were captured for 5 min to observe any possible agonistic property of the compounds. The plate was then incubated at room temperature for 15 min. The cells were stimulated with respective agonist EC75 concentration and the fluorescence readings were captured for another 5 min by FLIPR. The difference in fluorescence readings in presence of the compounds were compared with that of the control wells (wells having no compound) to calculate the inhibitory potency of the compounds. The IC50 values of the compounds were determined using the Graph pad Prism software.
(vi) Dye Solution Composition • 1×FLIPR Calcium 4 dye in assay buffer (Molecular devices Cat# R8141) • 1.8 mM Probenecid (Sigma Cat# P8761) • pH adjusted to 7.4

P2X2/3 = target: T2, P2X2/3 (Homo sapiens, UniProt P56373+Q9UBL9); experiment: P2X2/3 FLIPR intracellular calcium assay; format: cell-based; details: agonist at EC75, species (human or rat) not given
T2 sequence (Q9UBL9 1-471): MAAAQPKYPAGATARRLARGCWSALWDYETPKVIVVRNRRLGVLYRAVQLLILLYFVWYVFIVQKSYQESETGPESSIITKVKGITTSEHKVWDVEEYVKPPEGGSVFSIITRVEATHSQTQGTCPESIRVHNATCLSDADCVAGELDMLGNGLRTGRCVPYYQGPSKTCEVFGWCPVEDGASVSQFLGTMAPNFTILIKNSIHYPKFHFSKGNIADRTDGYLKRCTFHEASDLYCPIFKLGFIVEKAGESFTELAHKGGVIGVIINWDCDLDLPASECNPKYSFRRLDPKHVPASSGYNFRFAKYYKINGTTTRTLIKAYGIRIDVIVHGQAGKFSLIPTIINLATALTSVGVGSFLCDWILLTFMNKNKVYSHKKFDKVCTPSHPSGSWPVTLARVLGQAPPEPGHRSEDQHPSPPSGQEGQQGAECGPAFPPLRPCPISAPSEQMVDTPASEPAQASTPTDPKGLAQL
T2 sequence (P56373 1-397): T1 sequence (P56373 1-397)
Excerpt: The FLIPR® assay utilizes cells which express human or rat P2X3 or P2X2/3 receptors. Recombinant cells expressing hP2X3 (Cat#6188) and hP2X2/3 (Cat#6179) were procured from Chantest Corp. Rat P2X2 (NCBI Accession No: U14414) was amplified by PCR from PC12 cDNA (a rat adrenal medulla cell line). The PCR product obtained containing the protein coding sequence of rat P2X2 was cloned into EcoRV-digested and dephosphorylated vector pIRES-puro3 within the multiple cloning site (MCS). See, FIG. 1A.
as §1, §2, §3
Compounds were dissolved in DMSO and serially diluted following 11 point half log (3.16 fold) dilution with a starting concentration of 2 mM. Dilutions were mixed with assay buffer just before performing the assay.
as §4
(ii) Cell Plating Media for hP2X3-HEK and hP2X2/3-TRex293 Cells • DMEM/F12 (1:1) HAM media (Invitrogen; Cat#11039) • 1×NEAA (Invitrogen; Cat#11140) • 25 mM HEPES (Invitrogen; Cat#15630) • 1 mM sodium pyruvate (Invitrogen; Cat#11360) • 10% tetracycline negative FBS (PAA; Cat# A15-209) • 1 μg/mL doxycycline (Clontech; Cat#63131) [for hP2X2/3-TRex293 cells only]
(iii) Cell Plating Media for rP2X2/3-TRex293 Cells • DMEM media (Invitrogen; Cat#11965) • 25 mM HEPES (Invitrogen; Cat#15630) • 10% tetracycline negative FBS (PAA; Cat# A15-209) • 1 μg/mL Doxycycline (Clontech; Cat#63131)
(v) Assay Buffer Composition • HBSS (Invitrogen Cat#14025) • 20 mM HEPES (Invitrogen Cat#15630) • 0.01% F127 (Sigma Cat# P2443) • 1.8 mM CaCl2 (Sigma Cat# C5080) • pH adjusted to 7.4 […]

SMILES	IC50 (P2X3)	IC50 (P2X2/3)
Cc1ccc(-c2cnc3c(-n4nncc4C4CCC4)cc(C(=O)N[C@@H](C)c4nnc[nH]4)cn23)s1 [Example 43]	1 to 100 nM	1 to 100 nM
COc1ncc(CNC(=O)c2cc(-n3nncc3C(F)(F)F)c3ncc(-c4ccc(C)s4)n3c2)cn1 [Example 44]	1 to 100 nM	1 to 100 nM
Cc1ccc(CNC(=O)c2cc(-n3nncc3C(C)C)c3ncc(-c4ccc(C)s4)n3c2)cn1 [Example 45]	> 10000 nM	1 to 100 nM
Cc1ccc(-c2cnc3c(-n4nncc4C(C)(C)C)cc(C(=O)N[C@@H](C)c4nnc[nH]4)cn23)s1 [Example 46]	1 to 100 nM	1 to 100 nM
Cc1ncc(CNC(=O)c2cc(-n3nncc3C(F)F)c3ncc(-c4ncc(C)s4)n3c2)cn1 [Example 47]	1 to 100 nM	1 to 100 nM
Cc1ccc(CNC(=O)c2cc(-n3nncc3C(F)F)c3ncc(-c4ccc(C)o4)n3c2)cn1 [Example 48]	1 to 100 nM	1 to 100 nM
Cc1ncc(CNC(=O)c2cc(-n3nncc3C3CCC3)c3ncc(-c4ccc(C)s4)n3c2)cn1 [Example 49]	> 10000 nM	1 to 100 nM
C[C@H](NC(=O)c1cc(-n2nncc2C(F)F)c2ncc(-c3ccc(C#N)s3)n2c1)c1nnc[nH]1 [Example 51]	100 to 1000 nM	1000 to 10000 nM
Cc1cnc(-c2cnc3c(-n4nncc4C(F)F)cc(C(=O)N[C@@H](C)c4nnc[nH]4)cn23)s1 [Example 53]	1 to 100 nM	1 to 100 nM
Cc1ccc(-c2cnc3c(-n4nncc4C(F)F)cc(C(=O)N[C@H](c4nnc[nH]4)C(C)C)cn23)s1 [Example 54]	1 to 100 nM	1 to 100 nM
Cc1ncc(CNC(=O)c2cc(-n3nncc3C3CCC3)c3ncc(-c4ncc(C)s4)n3c2)cn1 [Example 55]	> 10000 nM	100 to 1000 nM
Cc1ccc(CNC(=O)c2cc(-n3nncc3C(F)(F)F)c3ncc(-c4ncc(C)s4)n3c2)cn1 [Example 56]	1 to 100 nM	100 to 1000 nM
Cc1cnc(-c2cnc3c(-n4nncc4C(C)(C)C)cc(C(=O)N[C@@H](C)c4nnc[nH]4)cn23)s1 [Example 57]	1 to 100 nM	100 to 1000 nM
CCc1cnnn1-c1cc(C(=O)N[C@@H](CC)c2nnc[nH]2)cn2c(-c3ccc(C)s3)cnc12 [Example 58]	1 to 100 nM	1 to 100 nM
C[C@H](NC(=O)c1cc(-n2nncc2C(F)F)c2ncc(-c3ccc(C(F)(F)F)s3)n2c1)c1nnc[nH]1 [Example 59]	100 to 1000 nM	1000 to 10000 nM
Cc1ccc(-c2cnc3c(-n4nncc4C(F)F)cc(C(=O)N[C@@H](C)c4nnc[nH]4)cn23)o1 [Example 60]	1 to 100 nM	1 to 100 nM

SMILES	IC50 (P2X3)	IC50 (P2X2/3)
CC[C@H](NC(=O)c1cc(-n2nncc2C(C)C)c2ncc(-c3ccc(C)s3)n2c1)c1nnc[nH]1 [Example 61]	1 to 100 nM	1 to 100 nM
CCc1cnnn1-c1cc(C(=O)N[C@@H](C)c2nnc[nH]2)cn2c(-c3ccc(C)o3)cnc12 [Example 62]	1 to 100 nM	100 to 1000 nM
CCCc1cnnn1-c1cc(C(=O)N[C@@H](C)c2nnc[nH]2)cn2c(-c3ccc(C)s3)cnc12 [Example 63]	1 to 100 nM	1 to 100 nM
CCCc1cnnn1-c1cc(C(=O)NCc2cnc(C)nc2)cn2c(-c3ncc(C)s3)cnc12 [Example 64]	1 to 100 nM	100 to 1000 nM
Cc1ncc(CNC(=O)c2cc(-n3nncc3C(F)F)c3ncc(-c4ccc(C)o4)n3c2)cn1 [Example 65]	1 to 100 nM	1 to 100 nM
Cc1ncc(CNC(=O)c2cc(-n3nncc3C(F)F)c3ncc(-c4cnc(C)s4)n3c2)cn1 [Example 66]	100 to 1000 nM	100 to 1000 nM
CC[C@H](NC(=O)c1cc(-n2nncc2C(C)(C)C)c2ncc(-c3ccc(C)s3)n2c1)c1nnc[nH]1 [Example 67]	1 to 100 nM	1 to 100 nM
Cc1ncc(CNC(=O)c2cc(-n3nncc3C(F)(F)F)c3ncc(-c4ncc(C)s4)n3c2)cn1 [Example 68]	1 to 100 nM	100 to 1000 nM
CC[C@H](NC(=O)c1cc(-n2nncc2C(C)C)c2ncc(-c3ccc(Cl)s3)n2c1)c1nnc[nH]1 [Example 69]	1 to 100 nM	100 to 1000 nM
Cc1ccc(-c2cnc3c(-n4nncc4C(C)(F)F)cc(C(=O)N[C@@H](C)c4nnc[nH]4)cn23)s1 [Example 70]	1 to 100 nM	1 to 100 nM
Cc1ncc(CNC(=O)c2cc(-n3nncc3C(C)(F)F)c3ncc(-c4ncc(C)s4)n3c2)cn1 [Example 71]	1 to 100 nM	100 to 1000 nM
Cc1ncc(CNC(=O)c2cc(-n3nncc3C(C)(F)F)c3ncc(-c4ccc(C)s4)n3c2)cn1 [Example 72]	1 to 100 nM	1 to 100 nM
CCc1cnnn1-c1cc(C(=O)N[C@H](c2nnc[nH]2)C(C)C)cn2c(-c3ccc(C)s3)cnc12 [Example 73]	100 to 1000 nM	100 to 1000 nM
Cc1ccc(-c2cnc3c(-n4nncc4C)cc(C(=O)N[C@H](c4nnc[nH]4)C(C)C)cn23)s1 [Example 74]	100 to 1000 nM	1000 to 10000 nM
CCc1cnnn1-c1cc(C(=O)NCc2cnc(C)nc2)cn2c(-c3ncc(C)s3)cnc12 [Example 75]	1 to 100 nM	100 to 1000 nM
C[C@H](NC(=O)c1cc(-n2nncc2C(C)(F)F)c2ncc(-c3ccc(Cl)s3)n2c1)c1nnc[nH]1 [Example 76]	1 to 100 nM	1 to 100 nM
